From patent US20070248954A1, “Primers for Use in Detecting Beta-Lactamases” (Creighton University, priority 2003, published 2007)
Values after ≈ are worked out from the molar mass of the structure shown.

Assays:
[1] = system: DNA template prepared from control strains known to produce specific CTX-M β-lactamases or ESBLs other than CTX-M β-lactamases; test: PCR specificity test of designed primers on control strains; conditions: for amplification with the rest of the control strains: DNA template from all other control strains in Table 1; for size of single amplified product: DNA template from the control strains of the primer set's own group
Text: Once the primers are designed, their specificity can be tested using the following method. Depending on the target nucleic acid of clinical interest, a nucleic acid is isolated from a bacterial control strain known to express or contain the resistance gene. This control strain, as used herein, refers to a “positive control” nucleic acid (typically, DNA). Additionally, a “negative control” nucleic acid (typically, DNA) can be isolated from one or more bacterial strains known to express a resistance gene other than the target gene of interest. Using the polymerase chain reaction, the designed primers are employed in a detection method, as described above, and used in the positive and negative control samples and in at least one test sample suspected of containing the resistance gene of interest. The positive and negative controls provide an effective and qualitative (or grossly quantitative) means by which to establish the presence or the absence of the gene of interest of test clinical samples. It should be recognized that with a small percentage of primer pairs, possible cross-reactivity with other β-lactamase genes might be observed. However, the size and/or intensity of any cross-reactive amplified product will be considerably different and can therefore be readily evaluated and dismissed as a negative result.
Polymerase Chain Reaction (PCR) amplifications were carried out on a Thermal Cycler 9600 instrument (Applied Biosystems, Norwalk, Conn.) as indicated in Example 1, with the primers, the size of the expected amplification product, and annealing temperatures used for the PCR as listed in Table 1. Magnesium chloride concentrations were 1.5 mM for all PCR reactions.
The designed primers were tested for specificity in separate PCR reactions using DNA template prepared from control strains known to produce specific CTX-M β-lactamases or strains producing ESBLs other than CTX-M β-lactamases (Tables 1 and 2, FIG. 3). […] Group II primers amplified a single 351 bp fragment when DNA template was prepared from control strains Rio-4, 34, and CT1.
Group IV primers amplified a 474 bp product from DNA prepared from strains 785D, EC984167, CF1, Rio-6, BM4493, ILT-2, and ILT-3. […] An isolate producing CTX-M-25 was requested but not obtained. Therefore, we were unable to examine the ability of the Group III primer set to amplify blaCTX-M-25.

[2] = system: Total (n = 175) clinical strains producing extended-spectrum β-lactamases; test: ESBL screening of clinical strains; assay type: cell-based, E. coli, K. pneumoniae; conditions: drug 1 μg/ml
Procedure: (§1) A total of 175 isolates representing E. coli (n=168), K. pneumoniae (n=7) were studied. Minimum inhibitory concentrations (MICs) to the following drugs were determined by Vitek (Vitek AMS; bioMérieux Vitek 5 Systems Inc., Hazelwood, Mo.); piperacillin (PIP), piperacillin/tazobactam (TZP), cefpodoxime (CPD), cefotaxime (CTX), ceftazidime (CAZ). The quality control strains used for this study were E. coli ATCC 25922, E. coli 35218, Pseudomonas aeruginosa ATCC 27853, Staphlylococcus aureus ATCC 29213, and K. pneumoniae ATCC 700603. Throughout this study, results were interpreted using National Committee for Clinical Laboratory Standards (NCCLS) criteria for broth dilution.
(§2) The presence of ESBLs was evaluated in both the control strains and the recent clinical isolates. Screening was performed with Vitek (Vitek AMS; bioMerieux Vitek Systems, Inc., Hazelwood, Mo.) using 1 μg/ml CPD, CAZ, and CTX. Screening and disk confirmation tests using CTX (30 μg) and CAZ (30 μg) disks in combination with 10 μg clavulanate (CLA) were performed and interpreted using NCCLS criteria for ESBL screening and disk confirmation tests. Disks for_ESBL confirmation tests were obtained from Oxoid Inc. (Nepean, Ontario, Canada). K. pneumoniae ATCC 700603 and E. coli ATCC 25922 were used as positive and negative controls, respectively.

[3] = system: K. pneumoniae (n = 2), Positive for CTX-M-1V group; test: ESBL screening of clinical strains; assay type: cell-based; conditions: drug 1 μg/ml
Procedure: as §1, §2

[4] = system: K. pneumoniae (n = 5), PCR for blaCTXM genes Negative; test: ESBL screening of clinical strains; assay type: cell-based; conditions: drug 1 μg/ml
Procedure: as §1, §2

[5] = system: E. coli (n = 24), Positive for CTX-M-1 group; test: ESBL screening of clinical strains; assay type: cell-based; conditions: drug 1 μg/ml
Procedure: as §1, §2

[6] = system: E. coli (n = 93), Positive for CTX-M-1V group; test: ESBL screening of clinical strains; assay type: cell-based; conditions: drug 1 μg/ml
Procedure: as §1, §2

[7] = system: E. coli (n = 51), PCR for blaCTXM genes Negative; test: ESBL screening of clinical strains; assay type: cell-based; conditions: drug 1 μg/ml
Procedure: as §1, §2

ESBL-producing strains = conditions: drug used as an initial screen; cited from earlier work
[8] = system: Twenty two isolates representing E. coli (Ec), Citrobacter freundii (Cf) and C. koseri (Ck); test: MICs of the 22 isolates of Example 1; assay type: cell-based; conditions: read-out: MICs; all 22 isolates (E. coli, C. freundii, C. koseri)
Procedure: Twenty two isolates representing E. coli (Ec), Citrobacter freundii (Cf) and C. koseri (Ck) were studied. All of these strains had MICs of greater than (>) 32 micrograms per milliliter […] of cefotaxime, >16 mg/ml of cefepime, and ranged between 1 to 8 mg/ml for ceftazidime. Dendrogram analysis of CTX-M genes deposited in GenBank was performed, and based on these analyses, known CTX-M-genes were divided into four families. Based on these families, four sets of family-specific primers were designed. Specificity of the primers was tested on all 22 of the isolates.

Compound	amplification with the rest of the control strains [1]	size of single amplified product [1] [bp]	Screening, No positive [2]	Screening, No positive (%) [2]	Screening, No positive [3]	Screening, No positive (%) [3]	Screening, No positive [4]	Screening, No positive (%) [4]	Screening, No positive [5]	Screening, No positive (%) [5]	Screening, No positive [6]	Screening, No positive (%) [6]	Screening, No positive [7]	Screening, No positive (%) [7]	MIC [8] [µg/mL]	other results
CTX-M-II group: primer pair of SEQ ID NO:3 and SEQ ID NO:4, Group 2 CTX-M β-lactamases, 351 base pair amplicon (DNA 1 GCGACCTGGTTAACTACAATCC; DNA 2 CGGTAGTATTGCCCTTAAGCC; PCR primers, chemistry not given here, further chemistry not given here)	no amplification product	351														
COCC1=C(C(=O)O)N2C(=O)[C@@H](NC(=O)/C(=N\OC)c3csc(N)n3)[C@H]2SC1 [CPD, cefpodoxime]			175	(100%)	2	(100%)	5	(100%)	24	(100%)	93	(100%)	51	(100%)		
CTX-M-I group: primer pair of SEQ ID NO:1 and SEQ ID NO:2, Group 1 CTX-M β-lactamases, 499 base pair amplicon (DNA 1 GACGATGTCACTGGCTGAGC; DNA 2 AGCCGCCGACGCTAATACA; PCR primers, chemistry not given here, further chemistry not given here)	No amplified product	499														
CC(C)(O/N=C(\C(=O)N[C@@H]1C(=O)N2C(C(=O)[O-])=C(C[n+]3ccccc3)CS[C@H]12)c1csc(N)n1)C(=O)O [CAZ, ceftazidime]			151	(86%)	0	(0%)	5	(100%)	24	(100%)	71	(76%)	51	(100%)	1 to 8 (≈ 1.83 to 14.6 µM)	ESBL-producing strains not detected (ESBL-producing strains): about 14%
CO/N=C(\C(=O)N[C@@H]1C(=O)N2C(C(=O)[O-])=C(C[N+]3(C)CCCC3)CS[C@H]12)c1csc(N)n1 [cefepime]															> 16	
CTX-M-VI group: primer pair of SEQ ID NO:5 and SEQ ID NO:6, Group 4 CTX-M β-lactamases, 474 base pair amplicon (DNA 1 GCTGGAGAAAAGCAGCGGAG; DNA 2 GTAAGCTGACGCAACGTCTG; PCR primers, chemistry not given here, further chemistry not given here)	no amplification of DNA	474														
CTX-M-III group: primer pair of SEQ ID NO:7 and SEQ ID NO:8, Group 3 or Group 5 CTX-M β-lactamases, 307 base pair amplicon (DNA 1 CGCTTTGCCATGTGCAGCACC; DNA 2 GCTCAGTACGATCGAGCC; PCR primers, chemistry not given here, further chemistry not given here)																control strains whose DNA was amplified ([1]; all control strains of Table 1): amplification of DNA prepared from only one strain, Rio-3
CO/N=C(\C(=O)N[C@@H]1C(=O)N2C(C(=O)O)=C(COC(C)=O)CS[C@H]12)c1csc(N)n1 [CTX, cefotaxime]			171	(98%)	2	(100%)	4	(80%)	24	(100%)	93	(100%)	48	(94%)	> 32	
